From patent publication US4436751A, “Nitrobenzyl monates antibacterial compounds” (Beecham Group Limited, priority 1980, dated 1984)
In brackets after ≈: the same amount, converted by molar mass. Read-outs that look alike come from different tables or passages of the source.

Experiments:
Format in all cases: cell-based
M. suipneumoniae NB12 = assay: Anti-mycoplasmal MIC in vitro, Friis broth agarose (Table 1); conditions: Mesomycoplasma hyopneumoniae
M. suipneumoniae JF 435 = assay: as above; conditions: Mesomycoplasma hyopneumoniae, JF435, 144 h
M. suipneumoniae OCD 1 = assay: as above; conditions: Mesomycoplasma hyopneumoniae, OCD1, 144 h
M. hyorhinis ATCC 23234 = assay: as above; conditions: Mesomycoplasma hyorhinis, ATCC23234, 144 h
[1] = tested on: M. hyosynoviae ATOC 25591; assay: as above; conditions: 144 h
[2] = tested on: M. bovigenitalium ATOC 14173; assay: as above; conditions: 144 h
M. dispar RCTC 10125 = assay: as above; conditions: 144 h
Bord. bronchiseptica BO8 = assay: Veterinary bacteria MIC, Diagnostic Sensitivity Test Agar (Table 2); conditions: Bordetella bronchiseptica
Experimental: (§1) The values were determined using a two fold serial dilutions in Diagnostic Sensitivity Test Agar with an inoculum of 10^4 organisms and incubation for 18 hours at 37° C.

Bord. bronchiseptica BO9 = assay: as above; conditions: Bordetella bronchiseptica
Experimental: as §1

E. Coli NCTC 10418 [3] = assay: as above; conditions: Escherichia coli
Experimental: as §1

Past. haemolytica PA5 = assay: as above; conditions: Mannheimia haemolytica
Experimental: as §1

Past. multocida PA1 = assay: as above; conditions: Pasteurella multocida
Experimental: as §1

Strep. uberis SPO1 = assay: as above; conditions: Streptococcus uberis
Experimental: as §1

Bacillus subtilis 6633 = assay: Human bacteria MIC, nutrient agar with chocolated horse blood (Table 3)
Experimental: (§2) The values were determined by serial dilutions in nutrient agar with 5% chocolated horse blood after incubations for 18 hours at 37° C.

[4] = tested on: Corynebacterium xerosis 9755; assay: as above
Experimental: as §2

E. Coli NCTC 10418 [5] = assay: as above; conditions: Escherichia coli
Experimental: as §2

[6] = tested on: Haemophilus influenzae Q1; assay: as above
Experimental: as §2

K. aerogenes A = assay: as above; conditions: Klebsiella aerogenes
Experimental: as §2

P. mirabilis 889 = assay: as above
Experimental: as §2

[7] = tested on: Pasteurella multocida 1633; assay: as above
Experimental: as §2

[8] = tested on: Ps. aeruginosa NCTC 10662; assay: as above; conditions: Pseudomonas aeruginosa
Experimental: as §2

Sarcina lutea 8340 = assay: as above
Experimental: as §2

Staph. aureus Oxford = assay: as above; conditions: Staphylococcus aureus
Experimental: as §2

Staph. aureus Russell = assay: as above; conditions: Staphylococcus aureus
Experimental: as §2

Staph. aureus W2827 = assay: as above; conditions: Staphylococcus aureus
Experimental: as §2

Strep. faecalis 1 = assay: as above
Experimental: as §2

[9] = tested on: Strep. pyogenes R80/421-A; assay: as above; conditions: Streptococcus pyogenes
Experimental: as §2

C/C(=C\C(=O)OCc1cccc([N+](=O)[O-])c1)CC1OCC(CC2OC2C(C)C(C)O)C(O)C1O (stereo not drawn) [Example 2, m-nitrobenzyl monate A]
MIC (M. suipneumoniae NB12; 144 h, M. suipneumoniae NB12, in vitro, 6 days 37° C., read-out: MIC): 0.025 mg/L (≈ 0.0521 µM)
MIC (M. suipneumoniae JF 435; M. suipneumoniae JF 435, in vitro, 6 days 37° C., read-out: MIC): 0.025 mg/L (≈ 0.0521 µM)
MIC (M. suipneumoniae OCD 1; M. suipneumoniae OCD 1, in vitro, 6 days 37° C., read-out: MIC): 0.025 mg/L (≈ 0.0521 µM)
MIC (M. hyorhinis ATCC 23234; M. hyorhinis ATCC 23234, in vitro, 6 days 37° C., read-out: MIC): ≤ 0.01 mg/L
MIC ([1]; M. hyosynoviae ATOC 25591, in vitro, 6 days 37° C., read-out: MIC): 0.025 mg/L (≈ 0.0521 µM)
MIC ([2]; M. bovigenitalium ATOC 14173, in vitro, 6 days 37° C., read-out: MIC): ≤ 0.01 mg/L
MIC (M. dispar RCTC 10125; M. dispar RCTC 10125, in vitro, 6 days 37° C., read-out: MIC): 0.01 mg/L (≈ 0.0209 µM)
MIC (Bord. bronchiseptica BO8; Bord. bronchiseptica BO8, DST Agar, 10^4 organisms, 18 hours 37° C., read-out: MIC): 20 mg/L (≈ 41.7 µM)
MIC (Bord. bronchiseptica BO9; Bord. bronchiseptica BO9, DST Agar, 10^4 organisms, 18 hours 37° C., read-out: MIC): 5 mg/L (≈ 10.4 µM)
MIC (E. Coli NCTC 10418 [3]; NCTC10418, E. Coli NCTC 10418, DST Agar, 10^4 organisms, 18 hours 37° C., read-out: MIC): 40 mg/L (≈ 83.4 µM)
MIC (Past. haemolytica PA5; Past. haemolytica PA5, DST Agar, 10^4 organisms, 18 hours 37° C., read-out: MIC): 5 mg/L (≈ 10.4 µM)
MIC (Past. multocida PA1; Past. multocida PA1, DST Agar, 10^4 organisms, 18 hours 37° C., read-out: MIC): 0.615 mg/L (≈ 1.28 µM)
MIC (Strep. uberis SPO1; Strep. uberis SPO1, DST Agar, 10^4 organisms, 18 hours 37° C., read-out: MIC): 0.07 mg/L (≈ 0.146 µM)
MIC (Bacillus subtilis 6633; Bacillus subtilis 6633, nutrient agar 5% chocolated horse blood, 18 hours 37° C., read-out: MIC): 5 mg/L (≈ 10.4 µM)
MIC ([4]; Corynebacterium xerosis 9755, nutrient agar 5% chocolated horse blood, 18 hours 37° C., read-out: MIC): > 100 mg/L
MIC (E. Coli NCTC 10418 [5]; NCTC10418, E. coli NCTC 10418, nutrient agar 5% chocolated horse blood, 18 hours 37° C., read-out: MIC): > 100 mg/L
MIC ([6]; Haemophilus influenzae Q1, nutrient agar 5% chocolated horse blood, 18 hours 37° C., read-out: MIC): 2.5 mg/L (≈ 5.21 µM)
MIC (K. aerogenes A; K. aerogenes A, nutrient agar 5% chocolated horse blood, 18 hours 37° C., read-out: MIC): > 100 mg/L
MIC (P. mirabilis 889; Proteus mirabilis, P. mirabilis 889, nutrient agar 5% chocolated horse blood, 18 hours 37° C., read-out: MIC): > 100 mg/L
MIC ([7]; Pasteurella multocida 1633, nutrient agar 5% chocolated horse blood, 18 hours 37° C., read-out: MIC): 10 mg/L (≈ 20.9 µM)
MIC ([8]; NCTC10662, Ps. aeruginosa NCTC 10662, nutrient agar 5% chocolated horse blood, 18 hours 37° C., read-out: MIC): > 100 mg/L
MIC (Sarcina lutea 8340; Micrococcus luteus, Sarcina lutea 8340, nutrient agar 5% chocolated horse blood, 18 hours 37° C., read-out: MIC): > 100 mg/L
MIC (Staph. aureus Oxford; Staph. aureus Oxford, nutrient agar 5% chocolated horse blood, 18 hours 37° C., read-out: MIC): 10 mg/L (≈ 20.9 µM)
MIC (Staph. aureus Russell; Staph. aureus Russell, nutrient agar 5% chocolated horse blood, 18 hours 37° C., read-out: MIC): 10 mg/L (≈ 20.9 µM)
MIC (Staph. aureus W2827; Staph. aureus W2827, nutrient agar 5% chocolated horse blood, 18 hours 37° C., read-out: MIC): 25 mg/L (≈ 52.1 µM)
MIC (Strep. faecalis 1; Enterococcus faecalis, Strep. faecalis 1, nutrient agar 5% chocolated horse blood, 18 hours 37° C., read-out: MIC): > 100 mg/L
MIC ([9]; Strep. pyogenes R80/421-A, nutrient agar 5% chocolated horse blood, 18 hours 37° C., read-out: MIC): 2.5 mg/L (≈ 5.21 µM)

C/C(=C\C(=O)OCc1ccc([N+](=O)[O-])c([N+](=O)[O-])c1)CC1OCC(CC2OC2C(C)C(C)O)C(O)C1O (stereo not drawn) [Example 9, 3,4-dinitrobenzyl monate A]
MIC (M. suipneumoniae NB12; NB12, 144 h): 0.25 mg/L (≈ 0.477 µM)
MIC (M. suipneumoniae JF 435): 1 mg/L (≈ 1.91 µM)
MIC (M. suipneumoniae OCD 1): 0.5 mg/L (≈ 0.953 µM)
MIC (M. hyorhinis ATCC 23234): 0.25 mg/L (≈ 0.477 µM)
MIC [1]: 0.5 mg/L (≈ 0.953 µM)
MIC [2]: ≤ 0.01 mg/L
MIC (M. dispar RCTC 10125): 0.025 mg/L (≈ 0.0477 µM)
MIC (Bord. bronchiseptica BO8; BO8, 18 h): 10 mg/L (≈ 19.1 µM)
MIC (Bord. bronchiseptica BO9; BO9, 18 h): 5 mg/L (≈ 9.53 µM)
MIC (E. Coli NCTC 10418 [3]; NCTC10418, 18 h): 80 mg/L (≈ 153 µM)
MIC (Past. haemolytica PA5; PA5, 18 h): 5 mg/L (≈ 9.53 µM)
MIC (Past. multocida PA1; PA1, 18 h): 0.625 mg/L (≈ 1.19 µM)
MIC (Strep. uberis SPO1; SPO1, 18 h): 0.156 mg/L (≈ 0.297 µM)
MIC (Bacillus subtilis 6633; Bacillus subtilis, 6633, 18 h): 0.5 mg/L (≈ 0.953 µM)
MIC ([4]; Corynebacterium xerosis, 9755, 18 h): > 100 mg/L
MIC (E. Coli NCTC 10418 [5]; NCTC10418, 18 h): 50 mg/L (≈ 95.3 µM)
MIC ([6]; Haemophilus influenzae, Q1, 18 h): 0.25 mg/L (≈ 0.477 µM)
MIC (K. aerogenes A; 18 h): 100 mg/L (≈ 191 µM)
MIC (P. mirabilis 889; Proteus mirabilis, 889, 18 h): 50 mg/L (≈ 95.3 µM)
MIC ([7]; Pasteurella multocida, 1633, 18 h): 2.5 mg/L (≈ 4.77 µM)
MIC ([8]; NCTC10662, 18 h): > 100 mg/L
MIC (Sarcina lutea 8340; Micrococcus luteus, 8340, 18 h): > 100 mg/L
MIC (Staph. aureus Oxford; 18 h): 1 mg/L (≈ 1.91 µM)
MIC (Staph. aureus Russell; 18 h): 2.5 mg/L (≈ 4.77 µM)
MIC (Staph. aureus W2827; W2827, 18 h): 1 mg/L (≈ 1.91 µM)
MIC (Strep. faecalis 1; Enterococcus faecalis, 1, 18 h): 25 mg/L (≈ 47.7 µM)
MIC ([9]; R80/421A, 18 h): 0.25 mg/L (≈ 0.477 µM)
